The source of these data is ChEMBL document CHEMBL1159041, “A study of the effects of substituents on the selectivity of the binding of N-arylaminomethylene malonate inhibitors to DHODH” (Bioorg Med Chem Lett, 2010).

The target of assay [1] is T1, Dihydroorotate dehydrogenase (Plasmodium falciparum) (UniProt Q54A96).
T1 sequence (whole entry): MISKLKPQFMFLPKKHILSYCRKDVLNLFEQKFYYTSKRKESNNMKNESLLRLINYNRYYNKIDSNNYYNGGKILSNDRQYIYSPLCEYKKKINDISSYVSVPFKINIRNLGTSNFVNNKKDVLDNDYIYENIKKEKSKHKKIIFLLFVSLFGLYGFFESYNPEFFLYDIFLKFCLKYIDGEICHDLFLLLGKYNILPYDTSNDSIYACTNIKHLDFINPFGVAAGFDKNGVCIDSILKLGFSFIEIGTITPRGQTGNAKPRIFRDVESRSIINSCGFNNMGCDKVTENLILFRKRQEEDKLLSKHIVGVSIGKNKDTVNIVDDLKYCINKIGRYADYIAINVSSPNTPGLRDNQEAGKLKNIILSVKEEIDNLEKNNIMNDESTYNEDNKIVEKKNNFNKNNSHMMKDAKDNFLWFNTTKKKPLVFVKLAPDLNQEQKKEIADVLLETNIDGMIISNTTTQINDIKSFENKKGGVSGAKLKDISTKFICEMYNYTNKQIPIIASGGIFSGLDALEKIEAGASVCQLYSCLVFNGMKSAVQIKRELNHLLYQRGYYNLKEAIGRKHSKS
The experiment in a line: Inhibition of Plasmodium falciparum DHODH at 50 uM.

In assay [2] the target is Dihydroorotate dehydrogenase (quinone), mitochondrial (Homo sapiens) (UniProt Q02127). The experiment in a line: Inhibition of human DHODH at 50 uM.
Dihydroorotate dehydrogenase (quinone), mitochondrial (Homo sapiens), sequence (Q02127 whole entry): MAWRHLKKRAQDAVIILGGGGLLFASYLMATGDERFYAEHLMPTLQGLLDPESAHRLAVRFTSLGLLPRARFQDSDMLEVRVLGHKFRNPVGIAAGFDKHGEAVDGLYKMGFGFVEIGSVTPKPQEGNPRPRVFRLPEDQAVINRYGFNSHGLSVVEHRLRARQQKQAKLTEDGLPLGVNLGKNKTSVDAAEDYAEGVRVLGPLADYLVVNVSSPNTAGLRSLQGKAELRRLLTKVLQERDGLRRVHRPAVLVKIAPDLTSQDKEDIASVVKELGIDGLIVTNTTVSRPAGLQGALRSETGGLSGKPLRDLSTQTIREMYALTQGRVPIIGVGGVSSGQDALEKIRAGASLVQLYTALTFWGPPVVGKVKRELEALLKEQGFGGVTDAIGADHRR

The term inhibition denotes the drop in the measured response relative to a control, in per cent. Read a high inhibition as a strong effect. Take `CCOC(=O)/C(C#N)=C\Nc1ccc(Cl)c(C(=O)OCC)c1`: the results for the inhibition in assay [1] and in assay [2] were 24% and 14%, respectively.
For `CCOC(=O)/C(C#N)=C\Nc1ccc(C(=O)O)c(Cl)c1`, in that order: 33% and 39%.
For `CCOC(=O)/C(C#N)=C\Nc1cccc(C(=O)OCC)c1`, in that order: 23% and 2%.
As for `CC1(C)OC(=O)C(=CNc2ccc(C(=O)O)c(Cl)c2)C(=O)O1`, the inhibition amounted to 41% in assay [1] and 21% in assay [2].
On to `CCOC(=O)/C(C#N)=C\Nc1ccc(C(=O)O)cc1`, for which the inhibition was determined as 0% in assay [1] and 29% in assay [2].
In the case of `CCOC(=O)c1ccc(NC=C2C(=O)OC(C)(C)OC2=O)cc1`, the values for the inhibition in assay [1] and in assay [2] were 0% and 3%, respectively.
On to `CCOC(=O)c1cccc(NC=C2C(=O)OC(C)(C)OC2=O)c1`, for which the figures for the inhibition in assay [1] and in assay [2] were 0% and 1%, respectively.
The like results for `CCOC(=O)C(=CNc1ccc(C(=O)OCC)c(Cl)c1)C(=O)OCC` were, in that order, 60% and 8%.
As for `CC1(C)OC(=O)C(=CNc2cccc(C(=O)O)c2)C(=O)O1`, the inhibition in assay [1] stood at 25%; in assay [2], 27%.
For the molecule `CC1(C)OC(=O)C(=CNc2ccc(C(=O)O)cc2)C(=O)O1`, the inhibition in assay [1] is 28%; in assay [2] it was 32%.
The like results for `CCOC(=O)C(=CNc1cccc(C(=O)O)c1)C(=O)OCC` were, in that order, 54% and 33%.
The like results for `CCOC(=O)C(=CNc1ccc(C(=O)OCC)cc1)C(=O)OCC` were, in that order, 15% and 4%.
The like results for `CCOC(=O)c1ccc(NC=C2C(=O)OC(C)(C)OC2=O)cc1Cl` were, in that order, 12% and 0%.
`CCOC(=O)C(=CNc1cccc(C(=O)OCC)c1)C(=O)OCC`: the results for the inhibition in assay [1] and in assay [2] were 0% and 5%, respectively.
Turning to `CCOC(=O)/C(C#N)=C\Nc1ccc(Cl)c(C(=O)O)c1`, the inhibition came out at 44% in assay [1] and 45% in assay [2].
Regarding `CCOC(=O)/C(C#N)=C\Nc1ccc(C(=O)OCC)cc1`, the inhibition in assay [1] and in assay [2] was 2% each time.
Consider `CCOC(=O)/C(C#N)=C\Nc1cccc(C(=O)O)c1`, for which the inhibition amounted to 0% in assay [1] and 23% in assay [2].
As for `CCOC(=O)/C(C#N)=C\Nc1ccc(C(=O)OCC)c(Cl)c1`, the inhibition is 66% in assay [1] and 12% in assay [2].
On to `CCOC(=O)c1cc(NC=C2C(=O)OC(C)(C)OC2=O)ccc1Cl`, for which the inhibition in assay [1] came to 0%; in assay [2], 5%.
Turning to `CCOC(=O)C(=CNc1ccc(Cl)c(C(=O)OCC)c1)C(=O)OCC`, the inhibition in assay [1] was 39%; in assay [2], 16%.
Consider `CCOC(=O)C(=CNc1ccc(C(=O)O)cc1)C(=O)OCC`, for which the inhibition amounted to 43% in assay [1] and 37% in assay [2].
Regarding `CC1(C)OC(=O)C(=CNc2ccc(Cl)c(C(=O)O)c2)C(=O)O1`, the inhibition in assay [1] was 50%; in assay [2] it was 21%.
As to `CCOC(=O)C(=CNc1ccc(Cl)c(C(=O)O)c1)C(=O)OCC`, the figures for the inhibition in assay [1] and in assay [2] were 37% and 39%, respectively.
